Key:
[1] = tested on: Gata1^low mice; conditions: mouse, in vivo
Description: Given the well described effects of inhibition of the TGF-β receptor 1 kinase on myelofibrosis in mouse models, the effects of the P-selectin inhibitor with those obtained with SB431542 are compared. In fact, contrary to inhibition of TGF-β signaling, inhibition of P-selectin has limited side effects and is therefore preferable to TGF-β inhibitors. […] Gata1^low mice are treated at 5-6 months of age (i.e. in the pre-MF stage) and analyzed at 10-12 months, an age when they are expected to have MF.
Gata1^low mice (8 mice per group) are treated with SB431542 according to the following scheme: • Group 1: Vehicle treated (2% v/v DMSO in H2O) (negative control) • Group 2: Mice receive SB431542 (60 μg/kg/day, cat no S4317-5GM, Sigma-Aldrich, St Louis, MO), as described (Spangrude G J et al, Stem Cells 2016; 34:67-82; Zingariello M et al, Blood 2013; […]
5-6 months old mice are treated daily for 5 days (Monday to Friday), then rested for 2 days and then treated again for 5 days. These treatments continue until the mice will reach 10-12 months of age. At that point they are sacrificed and analyzed for signs of progression to MF as described by Spangrude G J et al, Stem Cells 2016; 34:67-82; Zingariello M et al, Blood 2013; 121:3345-63. […]

[2] = tested on: broad panel of 26 kinases; conditions: tested at 200 nM; cited from earlier work
[3] = target: JAK3 (Homo sapiens, UniProt P52333); conditions: at clinically relevant concentrations; cited from earlier work
JAK3, sequence (P52333 whole entry): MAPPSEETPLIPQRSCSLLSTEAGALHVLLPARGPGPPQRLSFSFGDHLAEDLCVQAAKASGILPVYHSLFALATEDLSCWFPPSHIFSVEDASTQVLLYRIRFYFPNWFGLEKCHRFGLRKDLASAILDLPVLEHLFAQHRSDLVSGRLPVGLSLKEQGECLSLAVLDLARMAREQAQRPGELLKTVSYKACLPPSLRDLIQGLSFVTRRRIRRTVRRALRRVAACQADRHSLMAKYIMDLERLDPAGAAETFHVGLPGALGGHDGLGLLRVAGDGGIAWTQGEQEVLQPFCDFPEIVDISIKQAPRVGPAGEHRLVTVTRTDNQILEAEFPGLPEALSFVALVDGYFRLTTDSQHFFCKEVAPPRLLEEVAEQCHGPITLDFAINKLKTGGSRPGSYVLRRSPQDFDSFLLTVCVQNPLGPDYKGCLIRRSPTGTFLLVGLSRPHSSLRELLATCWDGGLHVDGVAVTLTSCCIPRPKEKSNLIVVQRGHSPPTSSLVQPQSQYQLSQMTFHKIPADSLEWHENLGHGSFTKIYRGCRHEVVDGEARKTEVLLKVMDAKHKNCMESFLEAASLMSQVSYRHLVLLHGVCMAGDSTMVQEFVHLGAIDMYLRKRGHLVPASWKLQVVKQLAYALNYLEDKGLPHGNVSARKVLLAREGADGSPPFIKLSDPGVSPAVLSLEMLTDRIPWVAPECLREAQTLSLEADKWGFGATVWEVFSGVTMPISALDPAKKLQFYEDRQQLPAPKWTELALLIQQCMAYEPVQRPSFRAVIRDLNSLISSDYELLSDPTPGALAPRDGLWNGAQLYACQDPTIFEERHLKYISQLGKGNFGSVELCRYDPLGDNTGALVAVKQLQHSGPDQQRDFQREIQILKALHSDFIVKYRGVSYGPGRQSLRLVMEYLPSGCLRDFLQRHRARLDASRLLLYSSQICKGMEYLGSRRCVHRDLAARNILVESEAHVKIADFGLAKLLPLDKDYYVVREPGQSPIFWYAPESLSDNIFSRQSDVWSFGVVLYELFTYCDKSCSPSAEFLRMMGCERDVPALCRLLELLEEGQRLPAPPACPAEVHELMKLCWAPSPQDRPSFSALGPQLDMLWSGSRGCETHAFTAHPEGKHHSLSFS

[4] = target: T1, P-selectin (Homo sapiens, UniProt P16109); conditions: cited from earlier work
T1 sequence (P16109 42-830): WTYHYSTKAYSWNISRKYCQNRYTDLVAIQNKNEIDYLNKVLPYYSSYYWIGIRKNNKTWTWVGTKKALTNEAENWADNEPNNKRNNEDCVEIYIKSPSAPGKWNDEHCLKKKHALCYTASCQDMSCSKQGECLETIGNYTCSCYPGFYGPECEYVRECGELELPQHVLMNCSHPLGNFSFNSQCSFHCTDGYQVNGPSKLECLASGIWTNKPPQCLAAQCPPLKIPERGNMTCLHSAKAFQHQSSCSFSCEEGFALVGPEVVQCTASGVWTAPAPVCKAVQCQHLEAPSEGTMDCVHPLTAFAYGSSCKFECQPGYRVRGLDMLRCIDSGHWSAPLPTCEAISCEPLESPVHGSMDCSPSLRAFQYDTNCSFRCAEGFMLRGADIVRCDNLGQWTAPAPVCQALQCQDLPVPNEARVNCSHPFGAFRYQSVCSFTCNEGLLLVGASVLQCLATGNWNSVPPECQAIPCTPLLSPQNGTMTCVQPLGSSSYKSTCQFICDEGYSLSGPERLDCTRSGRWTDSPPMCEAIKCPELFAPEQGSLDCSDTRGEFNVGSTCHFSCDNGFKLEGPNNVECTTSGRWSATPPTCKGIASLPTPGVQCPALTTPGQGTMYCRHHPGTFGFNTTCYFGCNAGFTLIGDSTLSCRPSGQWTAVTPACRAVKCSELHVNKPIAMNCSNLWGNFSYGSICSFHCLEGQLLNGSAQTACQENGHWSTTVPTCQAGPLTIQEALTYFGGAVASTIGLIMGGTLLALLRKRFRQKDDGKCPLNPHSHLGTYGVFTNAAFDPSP

NC(=O)c1ccc(-c2nc(-c3ccc4c(c3)OCO4)c(-c3ccccn3)[nH]2)cc1 [SB431542]
toxicity profile [1]: poor toxicity profile (increased osteosclerosis)

N#CC[C@H](C1CCCC1)n1cc(-c2ncnc3[nH]ccc23)cn1 [ruxolitinib, (R)-3-(4-(7H-pyrrolo[2,3-d]pyrimidin-4-yl)-1H-pyrazol-1-yl)-3-cyclopentylpropanenitrile]
inhibition [2]: < 30% | inhibition of JAK3 [3]: does not inhibit

B1: crizanlizumab: humanized monoclonal antibody targeted towards P-selectin, blocks its interaction with PSGL-1 (antibody)
heavy: QVQLVQSGAEVKKPGASVKVSCKVSGYTFTSYDINWVRQAPGKGLEWMGWIYPGDGSIKYNEKFKGRVTMTVDKSTDTAYMELSSLRSEDTAVYYCARRGEYGNYEGAMDYWGQGTLVTVSSASTKGPSVFPLAPCSRSTSESTAALGCLVKDYFPEPVTVSWNSGALTSGVHTFPAVLQSSGLYSLSSVVTVTSSNFGTQTYTCNVDHKPSNTKVDKTVERKCCVECPPCPAPPVAGPSVFLFPPKPKDTLMISRTPEVTCVVVDVSHEDPEVQFNWYVDGMEVHNAKTKPREEQFNSTFRVVSVLTVVHQDWLNGKEYKCAVSNKGLPAPIEKTISKTKGQPREPQVYTLPPSREEMTKNQVSLTCLVKGFYPSDIAVEWESNGQPENNYKTTPPMLDSDGSFFLYSKLTVDKSRWQQGNVFSCSVMHEALHNHYTQKSLSLSPGK
light: DIQMTQSPSSLSASVGDRVTITCKASQSVDYDGHSYMNWYQQKPGKAPKLLIYAASNLESGVPSRFSGSGSGTDFTLTISSLQPEDFATYYCQQSDENPLTFGGGTKVEIKRTVAAPSVFIFPPSDEQLKSGTASVVCLLNNFYPREAKVQWKVDNALQSGNSQESVTEQDSKDSTYSLSSTLTLSKADYEKHKVYACEVTHQGLSSPVTKSFNRGEC
blocking of P-selectin interaction with PSGL-1 [4]: blocks its interaction with P-selectin glycoprotein ligand 1 (PSGL-1) | dissociation of already formed P-selectin/PSGL-1 complexes [4]: dissociates P-selectin/PSLG-1 complexes that have already formed
